Assay results taken from patent EP0801570B1, “FORMULATIONS AND METHODS FOR REDUCING SKIN IRRITATION” (COSMEDERM TECHNOLOGIES, priority 1994, dated 1996).
Like-named read-outs stand apart in the source and are kept apart here.

Assays:
[1] = system: skin irritation; experiment: Human clinical trials of anti-irritant activity against topical skin irritants; assay type: in vivo, humans; settings: for anti-irritant activity: clinical trials
Description: The objective of the clinical trials was to determine whether and to what extent topical formulations of the calcium cation reduced or prevented skin irritation caused by certain severe skin irritants, including particularly lactic acid and glycolic acid (which are hydroxy acids), capryloyl salicylic acid (a β-hydroxy acid ester) and capsaicin (an isolate from cayenne and paprika known for its skin-irritating properties). The trials were conducted in a double blind, randomized, vehicle-controlled manner. Various formulations of the invention were tested in over 460 people.
(§1) Tests were conducted in multiple panels of from 7 to 12 subjects each. Subjects were instructed not to wear any makeup or facial lotions to the clinic the day of testing. The subjects were instructed to wash their face with Ivory bar soap in the clinic prior to application of test solutions.

[2] = system: lactic acid skin irritation; experiment: Lactic acid irritation trial, time zero test (anti-irritant applied simultaneously with the irritant); assay type: in vivo, humans; settings: time zero tests; for inhibition at 250000 µM: Homo sapiens
Text: (§2) The following scaled scores were used for sensory assessment: […]

[3] = system: lactic acid skin irritation; experiment: Lactic acid irritation trial, pretreatment test (anti-irritant applied 15 minutes before the irritant); assay type: in vivo, humans; settings: for Percent Inhibition (average inhibition of cumulative irritation): cation salt at 250 mM, lactic acid irritant; for inhibit skin irritation: topical solutions in Elizabeth Arden Visible Difference Refining Toner, various amounts of salt
Text: as §2

[4] = system: lactic acid skin irritation
Description: The majority of the trials were conducted using lactic acid as the skin irritant, and proceeded generally as follows.
as §1
Lactic acid skin-irritant compositions were formulated in an appropriate vehicle prior to application to the skin of the subjects.
Controls were performed by applying corresponding formulation(s) (pretreatment and/or skin-irritant composition) with an equimolar amount of sodium chloride to a contralateral portion of the subject's skin. Typically, the test materials were applied to the face of the subject.
All test solutions (including controls) were applied in a double blind, randomized fashion using the prepared solutions as previously placed in coded vial designated for use on either the right or left side of the face (or other test area). Solutions were typically applied using a cotton swab (six strokes) or sponge applicator to the face and cheek area extending from the midline of the nose over to the center of the cheek and from the cheek bone down to the jaw line. Application was made first to the right side and then to the left.
The following scaled scores were used for sensory assessment:
Symptom scores were cumulated, separately for the cation-treated and control-treated areas, for each individual and also for the panel as a whole.

[5] = cation salt at 250 mM, lactic acid irritant
[6] = representative panels, cation concentration 250 mM, vehicle 10% EtOH
[7] = pretreatment tests, representative panels, cation concentration 250 mM, vehicle VIS DIFFERENCE

Row | SMILES | suppress stinging, burning, tingling, itching and/or erythema ([1]; applied topically to the skin, irritants lactic acid, glycolic acid, capryloyl salicylic acid and benzoyl peroxide) | anti-irritant activity [1] | Percent Inhibition (average inhibition of cumulative irritation) [2, 5] [%] | Percent Inhibition [2, 6] [%] | Percent Inhibition (average inhibition of cumulative irritation) ([3]; pretreatment tests) [%] | Percent Inhibition [3, 7] [%] | inhibit skin irritation [3] | Percent Inhibition (cumulative irritation inhibition) ([4]; concentration 31 mM) [%] | Percent Inhibition (cumulative irritation inhibition) ([4]; concentration 62 mM) [%] | Percent Inhibition (cumulative irritation inhibition) ([4]; concentration 125 mM) [%] | Percent Inhibition (cumulative irritation inhibition) ([4]; concentration 250 mM) [%] | Percent Inhibition (cumulative irritation inhibition) ([4]; concentration 500 mM) [%] | inhibition at 250000 µM ([2]; cation salt at 250 mM, lactic acid irritant, read-out: Percent Inhibition (average inhibition of cumulative irritation)) [%] | inhibition at 250000 µM ([2]; representative panels, cation concentration 250 mM, vehicle 10% EtOH, read-out: Percent Inhibition) [%] | inhibition at 250000 µM ([3]; Homo sapiens, pretreatment tests, representative panels, cation concentration 250 mM, vehicle VIS DIFFERENCE, read-out: Percent Inhibition) [%]
1 | [Ca+2] [calcium(II) (Ca^2+)] | effective | significant and reproducible anti-irritant effects | – | – | – | – | – | – | – | – | – | – | – | – | –
2 | O=[N+]([O-])[O-].O=[N+]([O-])[O-].[Ca+2] [Calcium nitrate] | – | particularly active as anti-irritants | 90 | 85 | 45 | 44 | effective to inhibit skin irritation | 26 | 52 | 83 | 82 | 67 | – | – | –
3 | [Ca+2].[Cl-].[Cl-] [Calcium chloride] | – | particularly active as anti-irritants | 65 | 61 | 35 | 35 | effective to inhibit skin irritation | – | – | – | – | – | – | – | –
4 | O=C(O)[C@H](O)[C@@H](O)[C@H](O)[C@H](O)CO [Calcium gluconate] | – | particularly active as anti-irritants | – | – | – | – | – | – | – | – | – | – | 40 | 49 | 40
5 | CC(=O)[O-].CC(=O)[O-].[Ca+2] [Calcium acetate] | – | particularly active as anti-irritants | 60 | 65 | 40 | 30 | effective to inhibit skin irritation | – | – | – | – | – | – | – | –
